According to patent US20230414657A1, “Novel compositions for neutralizing toxic effects of hydrogen peroxide in living cells or tissues” (Dzala LLC, priority 2020, published 2023):

Legend:
[1] = tested on: living organism treated with Paraquat (PQ2+); details: cited from earlier work
C. elegans [2] = assay: H2O2 accumulation in worms (Amplex Red); format: in vivo; details: co-supplemented with peroxide and GA vs peroxide alone, 3 days
Procedure: Hydrogen peroxide was measured using the Amplex Red hydrogen peroxide/peroxidase assay kit (Molecular Probes, Eugene, OR), adapting the protocol to C. elegans. In the presence of hydrogen peroxide, Amplex Red is oxidized by horseradish peroxidase to form a red-fluorescent oxidation product whose fluorescence intensity can be measured.
To measure ROS production from C. elegans, 5000-7000 L1 worms were exposed to each condition for 2-3 days as indicated and then washed four times in 1 ml of the reaction buffer supplied with the kit. Volumes were adjusted to 700-1200 nematodes/50 μl and 50 μl was pipetted into a 96-well plate. A total of 50 μl of the Amplex Red reaction buffer was then added to the wells, and after 1 hr fluorescence was measured with a fluorescence microplate reader using excitation at 530±12.5 nm and fluorescence detection at 590±17.5 nm. Background fluorescence, determined for a no-H2O2 control reaction, was subtracted from each value. The significance of differences between conditions was determined by an unpaired fest. GraphPadPrism 8.0 was used for these calculations. Three biological replicates were carried out for each condition.

C. elegans [3] = assay: Quantification of glutathione (GSH/GSSG-Glo); format: in vivo
Procedure: Sample preparation was performed as described previously with some modifications^6. From each condition 10,000 synchronized animals were harvested and washed 3 times with sterile water. […] To thoroughly lyse the worms, 5 cycles of freezing and thawing were performed in a water bath at 37° C., followed by a 1-min sonication. The samples were then centrifuged and the supernatant tested for protein estimation and GSH quantification. Total GSH, GSSG, and GSH/GSSG ratios were quantified using the GSH/GSSG-Glo assay kit (Promega) following the instructions of the manufacturer. Briefly, each sample was tested in triplicate in 96-well culture plates with total glutathione or GSSG lysis reagent, for total glutathione or GSSG measurement, respectively. The GSH probe, luciferin-NT, was converted to luciferin, which is coupled to a firefly luciferase. The plates were then read in an […] plate reader (Perkin Elmer, United States). The GSSG value was subtracted from the total glutathione to calculate GSH levels and GSH/GSSG ratio. Four biological replicates were analyzed for each condition.

[4] = tested on: gox-1, ghpr-1, gcst-1, mel-32 and gcs-1 genes; assay: Quantitative real-time PCR of glycolate pathway genes; format: in vivo, C. elegans
Procedure: The differential expression of F41E6.5 (gox-1), C31C9.2 (ghpr-1), gcst-1, mel-32 and gcs-1 genes was measured using qRT-PCR. ˜5000 L1 N2 worms were exposed to each condition for 3 days at 15° Cas described above and then washed three times with H2O. Total RNA was isolated using the RNeasy Mini Kit (Qiagen) and equal amounts of all samples were reverse transcribed with SuperScript Ill (Invitrogen) using oligo(dT) 12-18 primers. cDNA quality was tested using standard PCR. qRT-PCR was performed using pre-designed TaqMan Gene Expression Assay (ThermoFischer Scientific) with at least three samples in triplicates. For the relative quantification of gene expression levels, the 2^−ΔΔCT method and results were normalized to the expression level of the cdc-42 gene. Expression levels were averaged over technical and biological replicates, […]

O=C(O)CO [GA, glycolic acid]
Animal growth ([1]; PQ2+ exposure): unable to restore | OCR (Oxygen consumption Rate) ([1]; PQ2+ exposure): unable to restore | Mitochondrial membrane potential ([1]; Paraquat (PQ2+) treated): can restore | Accumulation of H2O2 (C. elegans [2]): diminished | GSH/GSSG ratio (C. elegans [3]; H2O2+GA, control 107.5): 77.4 | Total glutathione (C. elegans [3]; H2O2 in the presence of GA (10 mM), 3 days): 91 % of the control | Oxidized form of glutathione (GSSG) (C. elegans [3]; H2O2 with addition of GA): 140 % of the control | Total glutathione, effect of GA addition (C. elegans [3]; peroxide-treated ghpr-1 and ghpr-1, gox-1, ldh-1 mutant strains): unaffected | Increase in GSSG, rescue by GA (C. elegans [3]; peroxide-treated ghpr-1 and triple mutants co-incubated with GA): not rescued | Expression of gox-1, ghpr-1, mel-32 and gcs-1 ([4]; glycolate supplementation): moderately induced | Expression of gcst-1 ([4]; peroxide or glycolate supplementation): not significantly altered
